Here are results for 20 molecules from patent publication US20080255062A1, “AXON REGENERATION FROM ADULT SENSORY NEURONS” (UNIVERSITY OF MANITOBA, priority 2007, published 2008).

One experiment relates to adult sensory neurons. Nature of the experiment: Small molecule screen for axon regeneration and outgrowth in adult neural cell suspensions (Example 3). As to conditions: 10 μM drug, 24 hrs incubation; average of 4 fields from 3 wells (12 fields) ± SE; 30×30 μm grid. In kind it is cell-based, Sprague-Dawley rat. An excerpt:
A single adult male Sprague-Dawley rat weighing between 250 g-450 g was anesthetized by isofluorane induction. After no response to external stimuli, the rat was sacrificed by guillotine.
Unnecessary satellite tissues and nerve fibers were cleaned from the DRG tissue immersed in the cell suspension medium at ambient room temperature using # 5 student forceps and a #10 scalpel blade under a Fisher Scientific Stereomaster® dissecting microscope (Stereomaster is a registered trademark of Fischer Scientific Co., LLC., Hampton, N.H., USA). The cleaned DRG tissue was placed into fresh cell suspension medium.
The cleaned DRG tissue was digested enzymatically to remove collagen fibers and proteinaceous material thereby releasing single DRG cells, as follows. […] The DRG tissue was then transferred to a fresh collagenase enzyme-cell suspension medium and incubated for another hour, after which the collagenase-digested DRG tissue was aspirated and washed twice in cell suspension medium pre-warmed to ambient room temperature.
The washed collagenase-digested DRG tissue was then placed into cell suspension medium to which a trypsin enzyme preparation (Prod. # T5266 from porcine pancreas; supplied by Sigma-Aldrich) was added to a final concentration of 0.25%, and then incubated for twenty minutes at 37° C. in a sterile atmosphere comprising 5% CO2. The trypsin action was stopped by the addition of 1 mL of pre-warmed HyClone fetal bovine serum […] (FBS Prod. # SH30070.01 supplied by Thermo Fisher Scientific, Napean, ON, Canada). The enzyme-digested DRG tissue was then washed twice with cell suspension medium supplemented with 10% FBS to ensure deactivation of trypsin activity. The enzyme-digested DRG tissue was then washed twice with cell suspension medium to remove the FBS.
The enzyme-digested DRG tissue was taken up from the cell suspension medium into a borosilicate glass Pasteur pipette (note that a borosilicate glass pipette was used to minimize DRG tissue sticking to the pipette) and was triturated about 15 times to disrupt the DRG tissue and to disassociate individual cells, after which the large tissue fragments were allowed to settle out of the suspension.
The supernatent containing satellite cells and debris was aspirated and discarded. […] The Ham's F12 medium containing 15% BSA served as a purification column for the supernatent and produced several upper layers containing dead cells, cellular debris and satellite layers over pellet of live neural cells. The upper layers were removed by aspiration with a Pasteur pipette. The cell pellet was resuspended in 1 mL of plating medium which comprised the cell suspension medium amended with 15 mM D-glucose (for a final concentation of 25 mM glucose). The 1 mL of suspended neural cells was then added to 19 mL of plating medium to make a 20-mL suspension of live neural cells.
600 μL of the neural cell suspension was removed to a 1.5 mL Eppendorf centrifuge tube.
The 600-μL reserved neural cell suspension was separated into three 200-μL aliquots which were then each plated into a well. The growth-factor-amended neural cell suspension was then plated into the remaining 93 wells in 200-μL aliquots. DMSO (Cat. # D2650 supplied by Sigma-Aldrich) was added to the three control wells (i.e., containing neural cell suspension that was not amended with growth factor supplements). The 96-well plate was then stored in a direct-heat humidified incubator (Form a CO2 Incubator supplied by Thermo Fisher Scientific) at 37° C. in a sterile atmosphere comprising 5% CO2.
(§1) High resolution and high pixel density digitized images of neurons were acquired. […] Total axon outgrowth was determined by placing a 30×30 μm grid over the image and counting the total number of intercepts with the grid line. Total neurite lengths were determined by the summing the lengths of all the neurites produced by an individual neuron.

Experiment [1] relates to adult neurals cells isolated from four-month old ZDF rats. Nature of the experiment: Axon outgrowth from adult neural cells of Zucker diabetic fatty rats (Example 5). The note with it: 24-h incubation, 25 mM glucose. The experiment is classed as cell-based, Zucker diabetic fatty rat. The procedure: as §1
In experiment [2] the test system is adult neural cells isolated from three-month-old STZ rats. The experiment in a line: Axon outgrowth from adult neural cells of streptozotocin diabetic rats (Example 4). In kind it is cell-based, Sprague-Dawley rat (STZ diabetic). The note with it: 24-h incubation, 25 mM glucose. The procedure: as §1
[3] abbreviates: at the dosages tested (0.1, 1.0, 10.0 μM).

Structures can show the parent of a compound that is named as a salt.

On to `CN[C@@H]1[C@H](O[C@H]2[C@H](O[C@H]3[C@H](O)[C@@H](O)[C@H](NC(=N)N)[C@@H](O)[C@@H]3NC(=N)N)O[C@@H](C)[C@]2(O)CO)O[C@@H](CO)[C@H](O)[C@H]1O` [Dihydrostreptomycin HCl], for which the “Ave number of intersects per cell per well” value (“Ave number … per well” below) with adult sensory neurons came to 2.4 ± 0.6.

For the molecule Aminopentanoic acid HCl, in the experiment on adult sensory neurons, the “Ave number … per well” value was 4.3 ± 0.4.

For `CCCC(CCC)C(=O)[O-].[Na+]` [Sodium valproate], in the experiment with adult sensory neurons, the “Ave number … per well” value is recorded as 8.5 ± 1.8.

Regarding `COc1ccccc1OCC(O)CO` (stereo not shown) [Guaifenesin], the “Ave number … per well” value with adult sensory neurons was found to be 5.0 ± 0.9. The “axon outgrowth relative to the controls” value in experiment [1] (0.1 μM) and in experiment [2] (10.0 μM) was “significantly increased” in each case.

`CCN(CC)C(C)CN1c2ccccc2Sc2ccccc21` (stereo not shown) [Ethopropazine HCL]: the “Ave number … per well” value in the experiment on adult sensory neurons was determined as 4.4 ± 1.4. Besides, in experiment [1] (10.0 μM), the “axon outgrowth relative to the controls” value was “significantly increased”.

On to `C=N[C@@H](C(=O)N[C@@H]1C(=O)N2[C@@H]1SC(C)(C)[C@@H]2C(=O)O)c1ccccc1` [Metampicillin sodium], for which the “Ave number … per well” value in the experiment with adult sensory neurons is listed as 6.7 ± 1.3.

For the molecule `Cn1c(=O)c2c(ncn2C)n(C)c1=O` [Caffeine], the “Ave number … per well” value with adult sensory neurons came out at 3.25 ± 1.6.

For the molecule `NCC(CC(=O)O)c1ccc(Cl)cc1` (stereo not shown) [Baclofen], the “Ave number … per well” value in the experiment on adult sensory neurons came out at 9.8 ± 2.2.

In the case of `COc1c2occc2cc2ccc(=O)oc12` [Methoxsalen], the “Ave number … per well” value in the experiment with adult sensory neurons is reported as 9.7 ± 2.0.

Turning to `CC(=O)O[C@]1(C(C)=O)CC[C@H]2[C@@H]3C=C(C)C4=CC(=O)CC[C@]4(C)[C@H]3CC[C@@]21C` [Megastrol acetate], the “Ave number … per well” value in the experiment on adult sensory neurons is recorded as 9.2 ± 1.8.

`CCCCOc1cc(C(=O)NCCN(CC)CC)c2ccccc2n1` [Dibucaine hydrochloride]: in the experiment on adult sensory neurons, the “Ave number … per well” value came out at 2.0 ± 0.3.

With `CN1CCN(CC(=O)N2c3ccccc3C(=O)Nc3cccnc32)CC1` [Pirenzepine HCl], the “Ave number … per well” value in the experiment with adult sensory neurons came to 4.4 ± 0.7. For the same molecule, the “axon outgrowth relative to the controls” value in experiment [1] (setting [3]) and in experiment [2] (setting [3]) was “did not have significant effects” in each case.

On to `Nc1ccc(/N=N/c2ccccc2)c(N)n1` [Phenazopyridine HCl], for which the “Ave number … per well” value in the experiment with adult sensory neurons was found to be 10.2 ± 0.2.

Regarding `CC(C)(Oc1ccc(CCNC(=O)c2ccc(Cl)cc2)cc1)C(=O)O` [Bezafibrate], the “Ave number … per well” value in the experiment on adult sensory neurons is on record as 6.9 ± 1.7.

Consider Hydrocortizone, for which, in the experiment on adult sensory neurons, the “Ave number … per well” value came out at 10.7 ± 1.7.

For the molecule `CCC1(c2ccc(N)cc2)CCC(=O)NC1=O` (stereo not shown) [Aminoglutethimide], in the experiment with adult sensory neurons, the “Ave number … per well” value was found to be 5.9 ± 2.0.

Take Aminopentanoic acid: in experiment [2] (setting [3]), the “axon outgrowth relative to the controls” value is on record as “did not have significant effects”.

For the molecule `CC(C)NCC(O)COc1ccc(CC(N)=O)cc1` (stereo not shown) [Atenolol], the “Ave number … per well” value in the experiment with adult sensory neurons stood at 6.2 ± 0.2.

On to `CC(C(=O)O)c1cccc(C(=O)c2ccccc2)c1` (stereo not shown) [Ketoprofen], for which, in the experiment on adult sensory neurons, the “Ave number … per well” value is 7.9 ± 0.7.

As for `O=S(=O)(O)CCS` [Mesna], the “Ave number … per well” value in the experiment on adult sensory neurons is given as 8.8 ± 3.9.
